Test [1] has as its target T1, myeloperoxidase (MPO) (Homo sapiens (Human), UniProt P05164). Nature of the test: MPO peroxidation assay (Amplex Red assay). In kind it is biochemical. Conditions: potency range class. The gist of the method: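 IC50 values come from a four-parameter fit of rates taken from the linear 180-540 s portion of a 15 min kinetic read of resorufin (Ex 535/Em 590 nm). Amplex Red (200 μM) plus 10 mM H2O2 was added after a 10 min room-temperature preincubation of inhibitor with 200 pM MPO and 40 nM H2O2 in 100 mM KPi, pH 7.4.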

Test [2] addresses T1, myeloperoxidase (MPO). Nature of the test: MPO chlorination assay (APF assay). In kind it is biochemical. The settings on record: potency range class. Put shortly: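 Chlorinating activity followed by APF cleavage to fluorescein (485/535 nm, 3 min kinetic read) after adding APF and 10 μM H2O2. Beforehand, 200 pM enzyme, compound and 120 mM NaCl sat 10 min at room temperature in 100 mM KPi, pH 7.4. Initial-rate slopes gave % inhibition; IC50 by Hill-slope fit.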

Our source for the IC50 values is US10407422B2, “Triazolopyridine inhibitors of myeloperoxidase” (priority 2015, dated 2019).

The term IC50 denotes the point on the concentration scale where inhibition reaches its midpoint.

T1 sequence (P05164 49-745): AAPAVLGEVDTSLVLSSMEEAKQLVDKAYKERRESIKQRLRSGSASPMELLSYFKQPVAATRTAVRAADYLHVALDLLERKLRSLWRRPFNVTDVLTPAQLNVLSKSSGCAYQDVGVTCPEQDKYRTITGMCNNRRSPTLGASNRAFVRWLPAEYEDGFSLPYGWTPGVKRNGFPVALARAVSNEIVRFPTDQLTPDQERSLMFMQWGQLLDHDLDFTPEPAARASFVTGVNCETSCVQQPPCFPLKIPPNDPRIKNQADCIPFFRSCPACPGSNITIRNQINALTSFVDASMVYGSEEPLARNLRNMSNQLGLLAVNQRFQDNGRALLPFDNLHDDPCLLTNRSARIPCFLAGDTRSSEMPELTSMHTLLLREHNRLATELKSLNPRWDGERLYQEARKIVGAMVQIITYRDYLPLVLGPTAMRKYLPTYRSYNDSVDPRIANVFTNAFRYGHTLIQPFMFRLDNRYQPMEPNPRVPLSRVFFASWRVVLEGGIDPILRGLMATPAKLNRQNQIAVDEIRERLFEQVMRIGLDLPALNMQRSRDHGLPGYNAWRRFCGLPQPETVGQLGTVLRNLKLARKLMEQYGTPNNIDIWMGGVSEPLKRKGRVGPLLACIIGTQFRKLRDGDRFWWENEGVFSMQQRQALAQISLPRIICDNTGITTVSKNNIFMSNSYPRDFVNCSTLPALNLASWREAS

On to `Nc1cc(Cc2cnn(Cc3ccc4ncsc4c3)c2)c2nn[nH]c2n1` [Example 180, 7-{[1-(1,3-Benzothiazol-6-ylmethyl)-1H-pyrazol-4-yl]methyl}-3H-[1,2,3]triazolo[4,5-b]pyridin-5-amine], for which the values for the IC50 at myeloperoxidase (MPO) [1] and against myeloperoxidase (MPO) [2] were 1 to 100 nM and 101 to 999 nM, respectively.
For the molecule `CC1NCCc2cc(Cn3cc(Cc4cc(N)nc5[nH]nnc45)cn3)ccc21` (stereo not drawn) [Example 181, 7-({1-[(1-Methyl-1,2,3,4-tetrahydroisoquinolin-6-yl)methyl]-1H-pyrazol-4-yl}methyl)-3H-[1,2,3]triazolo[4,5-b]pyridin-5-amine], the IC50 on myeloperoxidase (MPO) [1] and on myeloperoxidase (MPO) [2] was 1 to 100 nM in each case.
Consider `Nc1cc(Cc2cnn(Cc3cccc(CN4CCNCC4)c3)c2)c2nn[nH]c2n1` [Example 182, 7-[(1-{[3-(Piperazin-1-ylmethyl)phenyl]methyl}-1H-pyrazol-4-yl)methyl]-3H-[1,2,3]triazolo[4,5-b]pyridin-5-amine], for which the IC50 is 1 to 100 nM at myeloperoxidase (MPO) [1] and 101 to 999 nM on myeloperoxidase (MPO) [2].
For `Nc1cc(Cc2cnn(CCC3CCNCC3)c2)c2nn[nH]c2n1` [Example 183, 7-({1-[2-(Piperidin-4-yl)ethyl]-1H-pyrazol-4-yl}methyl)-3H-[1,2,3]triazolo[4,5-b]pyridin-5-amine], in that order: 1 to 100 nM and 101 to 999 nM.
Take `Nc1cc(Cc2cnn(CC3CCN(Cc4ccccc4)C3)c2)c2nn[nH]c2n1` (stereo not drawn) [Example 184, 7-({1-[(1-Benzylpyrrolidin-3-yl)methyl]-1H-pyrazol-4-yl}methyl)-3H-[1,2,3]triazolo[4,5-b]pyridin-5-amine]: the IC50 against myeloperoxidase (MPO) [1] is 1 to 100 nM; on myeloperoxidase (MPO) [2], 101 to 999 nM.
For `CNc1nc2ccc(Cn3cc(Cc4cc(N)nc5[nH]nnc45)cn3)cc2s1` [Example 186, 6-{[4-({5-Amino-3H-[1,2,3]triazolo[4,5-b]pyridin-7-yl}methyl)-1H-pyrazol-1-yl]methyl}-N-methyl-1,3-benzothiazol-2-amine], the 50% inhibitory concentration (IC50) is 1 to 100 nM on myeloperoxidase (MPO) [1] and 101 to 999 nM against myeloperoxidase (MPO) [2].
In the case of `Nc1cc(Cc2cnn(Cc3cccc([C@H]4CNC(=O)C4)c3)c2)c2nn[nH]c2n1` [Example 188, (S)-4-(3-((4-((5-Amino-3H-[1,2,3]triazolo[4,5-b]pyridin-7-yl)methyl)-1H-pyrazol-1-yl)methyl)phenyl)pyrrolidin-2-one], the IC50 lay in the range of 1 to 100 nM on myeloperoxidase (MPO) [1] and 101 to 999 nM at myeloperoxidase (MPO) [2].
In the case of `Nc1cc(Cc2cnn(Cc3cccc([C@@H]4CNC(=O)C4)c3)c2)c2nn[nH]c2n1` [Example 189, (R)-4-(3-((4-((5-Amino-3H-[1,2,3]triazolo[4,5-b]pyridin-7-yl)methyl)-1H-pyrazol-1-yl)methyl)phenyl)pyrrolidin-2-one], the half-maximal inhibitory concentration (IC50) on myeloperoxidase (MPO) [1] is 1 to 100 nM; against myeloperoxidase (MPO) [2] it was 101 to 999 nM.
For `Nc1cc(Cc2cnn(Cc3cccc([C@@H]4CCNC4)c3)c2)c2nn[nH]c2n1` [Example 190], in that order: 1 to 100 nM and 1 to 100 nM.
Regarding `Cc1ccc([C@H]2CNC(=O)C2)cc1Cn1cc(Cc2cc(N)nc3[nH]nnc23)cn1` [Example 192, (4S)-4-(3-{[4-({5-Amino-3H-[1,2,3]triazolo[4,5-b]pyridin-7-yl}methyl)-1H-pyrazol-1-yl]methyl}-4-methylphenyl)pyrrolidin-2-one], the IC50 against myeloperoxidase (MPO) [1] and at myeloperoxidase (MPO) [2] was 101 to 999 nM each time.
`Nc1cc(Cc2cnn(Cc3cc([C@@H]4CCNC4)ccc3C(F)(F)F)c2)c2nn[nH]c2n1` [Example 193, 7-{[1-({5-[(3S)-Pyrrolidin-3-yl]-2-(trifluoromethyl)phenyl}methyl)-1H-pyrazol-4-yl]methyl}-3H-[1,2,3]triazolo[4,5-b]pyridin-5-amine]: the IC50 lay within 1 to 100 nM at myeloperoxidase (MPO) [1] and 101 to 999 nM at myeloperoxidase (MPO) [2].
On the same counts, the results for `Cc1ccc([C@@H]2CCNC2)cc1Cn1cc(Cc2cc(N)nc3[nH]nnc23)cn1` [Example 194, 7-{[1-({2-Methyl-5-[(3S)-pyrrolidin-3-yl]phenyl}methyl)-1H-pyrazol-4-yl]methyl}-3H-[1,2,3]triazolo[4,5-b]pyridin-5-amine] are 1 to 100 nM and 1000 to 10000 nM.
On the same counts, the results for `Nc1cc(Cc2cnn(Cc3cc(F)cc([C@@H]4CCNC4)c3)c2)c2nn[nH]c2n1` [Example 195, 7-{[1-({3-Fluoro-5-[(3S)-pyrrolidin-3-yl]phenyl}methyl)-1H-pyrazol-4-yl]methyl}-3H-[1,2,3]triazolo[4,5-b]pyridin-5-amine] are 1 to 100 nM and 1 to 100 nM.
On the same counts, the results for `Nc1cc(Cc2cnn(Cc3cc(Cl)cc([C@@H]4CCNC4)c3)c2)c2nn[nH]c2n1` [Example 196, 7-{[1-({3-Chloro-5-[(3S)-pyrrolidin-3-yl]phenyl}methyl)-1H-pyrazol-4-yl]methyl}-3H-[1,2,3]triazolo[4,5-b]pyridin-5-amine] are 1 to 100 nM and 1 to 100 nM.
Consider `COc1cc(Cn2cc(Cc3cc(N)nc4[nH]nnc34)cn2)cc([C@@H]2CCNC2)c1` [Example 197, 7-{[1-({3-Methoxy-5-[(3S)-pyrrolidin-3-yl]phenyl}methyl)-1H-pyrazol-4-yl]methyl}-3H-[1,2,3]triazolo[4,5-b]pyridin-5-amine], for which the IC50 against myeloperoxidase (MPO) [1] and on myeloperoxidase (MPO) [2] was 1 to 100 nM throughout.
For `Nc1cc(Cc2cnn(Cc3cc([C@@H]4CCNC4)ccc3Cl)c2)c2nn[nH]c2n1` [Example 198, 7-{[1-({2-Chloro-5-[(3 S)-pyrrolidin-3-yl]phenyl}methyl)-1H-pyrazol-4-yl]methyl}-3H-[1,2,3]triazolo[4,5-b]pyridin-5-amine], the IC50 on myeloperoxidase (MPO) [1] was 1 to 100 nM; on myeloperoxidase (MPO) [2], 101 to 999 nM.
On the same counts, the results for `Nc1cc(Cc2cnn(Cc3cc([C@@H]4CCNC4)cc(F)c3F)c2)c2nn[nH]c2n1` [Example 199, 7-{[1-({2,3-Difluoro-5-[(3S)-pyrrolidin-3-yl]phenyl}methyl)-1H-pyrazol-4-yl]methyl}-3H-[1,2,3]triazolo[4,5-b]pyridin-5-amine] are 1 to 100 nM and 1 to 100 nM.
For `Nc1cc(Cc2cnn(Cc3cc([C@@H]4CCNC4)ccc3OC(F)F)c2)c2nn[nH]c2n1` [Example 200, 7-[(1-{[2-(Difluoromethoxy)-5-[(3 S)-pyrrolidin-3-yl]phenyl]methyl}-1H-pyrazol-4-yl)methyl]-3H-[1,2,3]triazolo[4,5-b]pyridin-5-amine], in that order: 1 to 100 nM and 1 to 100 nM.
On the same counts, the results for `Nc1cc(Cc2cnn(Cc3cc([C@@H]4CC(=O)NC4CO)cc(C(F)(F)F)c3)c2)c2nn[nH]c2n1` (stereo partly drawn) [Example 201, (4S)-4-(3-{[4-({5-Amino-3H-[1,2,3]triazolo[4,5-b]pyridin-7-yl}methyl)-1H-pyrazol-1-yl]methyl}-5-(trifluoromethyl)phenyl)-5-(hydroxymethyl)pyrrolidin-2-one] are 1 to 100 nM and 1 to 100 nM.
For `CC1C[C@@H](c2cccc(Cn3cc(Cc4cc(N)nc5[nH]nnc45)cn3)c2)CN1` (stereo partly drawn) [Example 202, 7-{[1-({3-[(3S)-5-Methylpyrrolidin-3-yl]phenyl}methyl)-1H-pyrazol-4-yl]methyl}-3H-[1,2,3]triazolo[4,5-b]pyridin-5-amine], the IC50 against myeloperoxidase (MPO) [1] and against myeloperoxidase (MPO) [2] was 1 to 100 nM each time.
Consider `Nc1cc(Cc2cnn(Cc3cccc([C@H]4CNC(Cc5ccccc5)C4)c3)c2)c2nn[nH]c2n1` (stereo partly drawn) [Example 203, 7-{[1-({3-[(3S)-5-benzylpyrrolidin-3-yl]phenyl}methyl)-1H-pyrazol-4-yl]methyl}-3H-[1,2,3]triazolo[4,5-b]pyridin-5-amine], for which the concentration for half-maximal inhibition (IC50) against myeloperoxidase (MPO) [1] and at myeloperoxidase (MPO) [2] was 1 to 100 nM in each case.
`CCCC1C[C@@H](c2cccc(Cn3cc(Cc4cc(N)nc5[nH]nnc45)cn3)c2)CN1` (stereo partly drawn) [Example 204, 7-{[1-({3-[(3S)-5-propylpyrrolidin-3-yl]phenyl}methyl)-1H-pyrazol-4-yl]methyl}-3H-[1,2,3]triazolo[4,5-b]pyridin-5-amine]: the IC50 against myeloperoxidase (MPO) [1] and on myeloperoxidase (MPO) [2] was 1 to 100 nM each time.
For the molecule `CC(C)C1C[C@@H](c2cccc(Cn3cc(Cc4cc(N)nc5[nH]nnc45)cn3)c2)CN1` (stereo partly drawn) [Example 205, 7-{[1-({3-[(3S)-5-(propan-2-yl)pyrrolidin-3-yl]phenyl}methyl)-1H-pyrazol-4-yl]methyl}-3H-[1,2,3]triazolo[4,5-b]pyridin-5-amine], the IC50 at myeloperoxidase (MPO) [1] and against myeloperoxidase (MPO) [2] was 1 to 100 nM each time.
Consider `Nc1cc(Cc2cnn(Cc3cccc(C4CCNCC4)c3)c2)c2nn[nH]c2n1` [Example 206, 7-[(1-{[3-(Piperidin-4-yl)phenyl]methyl}-1H-pyrazol-4-yl)methyl]-3H-[1,2,3]triazolo[4,5-b]pyridin-5-amine], for which the IC50 against myeloperoxidase (MPO) [1] lay in the range of 1 to 100 nM; on myeloperoxidase (MPO) [2] it was 101 to 999 nM.
For `Nc1cc(Cc2cnn(Cc3cccc(CC4CCNCC4)c3)c2)c2nn[nH]c2n1` [Example 207, 7-[(1-{[3-(Piperidin-4-ylmethyl)phenyl]methyl}-1H-pyrazol-4-yl)methyl]-3H-[1,2,3]triazolo[4,5-b]pyridin-5-amine], in that order: 1 to 100 nM and 101 to 999 nM.
Consider `Nc1cc(Cc2cnn(Cc3cccc(C4CCCN4)c3)c2)c2nn[nH]c2n1` (stereo not drawn) [Example 208, 7-[(1-{[3-(Pyrrolidin-2-yl)phenyl]methyl}-1H-pyrazol-4-yl)methyl]-3H-[1,2,3]triazolo[4,5-b]pyridin-5-amine], for which the IC50 on myeloperoxidase (MPO) [1] and against myeloperoxidase (MPO) [2] was 1 to 100 nM throughout.
Consider `CN1CCC(c2cccc(Cn3cc(Cc4cc(N)nc5[nH]nnc45)cn3)c2)CC1` [Example 209, 7-[(1-{[3-(1-Methylpiperidin-4-yl)phenyl]methyl}-1H-pyrazol-4-yl)methyl]-3H-[1,2,3]triazolo[4,5-b]pyridin-5-amine], for which the half-maximal inhibitory concentration (IC50) against myeloperoxidase (MPO) [1] and against myeloperoxidase (MPO) [2] was 101 to 999 nM each time.
